Experiments:
total thyroxine (tT4) = test: Total thyroxine (tT4) assays before and after each week's treatment (Example 1); format: in vivo; details: cats; twice daily for a week
Source text: At least a fortnight was allowed between treatments.

[1] = in vivo
Experimental: They received standard oral carbimazole (Neomercazole, AFT Pharmaceuticals Ltd) tablets 5 mg administered twice daily for a week, followed by a test formulation of transdermal carbimazole (Test Formulation 1, Table 1, Example 2, below) 10 mg administered twice daily for a week, followed by Hoffman's (2002) transdermal formulation of carbimazole in poloxamer lecithin organogel (PLO), 10 mg administered twice daily for a week. At least a fortnight was allowed between treatments.

[2] = Hoffman et al, 2002; cited from earlier work

Row | SMILES | tT4 concentrations over the seven days of the trial period (total thyroxine (tT4)) | plasma methimazole levels relative to the published therapeutic range [1] | published plasma levels with methimazole [2]
1 | CCOC(=O)n1ccn(C)c1=S [carbimazole] | approximately halved | in the published therapeutic range | –
2 | Cn1cc[nH]c1=S [methimazole] | – | – | 0.51 ± 0.15 µg/mL

From patent US8748467B2, “Topical formulation” (Bayer Intellectual Property GmbH, priority 2007, dated 2014)
